Patent publication US20250082648A1, “COMPOSITIONS AND METHODS FOR ENHANCING KRAS INHIBITOR OR SHP2 INHIBITOR EFFICACY” (New York University, priority 2023, published 2025)

Test system: H2122 cells
Assay: CRISPR/Cas9 synthetic lethal screen with TNO155 alone
Format: cell-based, human
Conditions: for neg|lfc: H2122 cells; for neg|score / pos|lfc: H2122

## C[C@@H]1OCC2(CCN(c3cnc(Sc4ccnc(N)c4Cl)c(N)n3)CC2)[C@@H]1N [TNO155]
AATF knockout
  neg|lfc: −0.9199
ABT1 knockout
  neg|lfc: −1.0094
ADAT3 knockout
  neg|lfc: −1.2793
ADSL knockout
  neg|score: 0.0007395
ADSS knockout
  neg|lfc: −1.8117
ANAPC2 knockout
  neg|score: 0.0008681
ARIH1 knockout
  neg|lfc: −1.1405
ASF1A knockout
  neg|score: 0.0009774
ASH2L knockout
  neg|score: 0.000721
ATP5B knockout
  neg|lfc: −1.2287
ATP6V0B knockout
  neg|lfc: −1.1768
ATP6V1D knockout
  neg|score: 0.0008813
ATP6V1E1 knockout
  neg|score: 0.0009389
ATRX knockout
  neg|lfc: −1.7393
AURKA knockout
  neg|lfc: −1.3711
BCAS2 knockout
  neg|lfc: −0.7436
BCCIP knockout
  neg|score: 0.0009424
C7orf26 knockout
  neg|score: 0.0008313
C12orf45 knockout
  neg|score: 0.0008272
C16orf59 knockout
  neg|score: 0.0007587
C16orf80 knockout
  neg|score: 0.000879
C17orf70 knockout
  neg|score: 0.0008636
CCDC115 knockout
  neg|lfc: −1.2834
CCDC174 knockout
  neg|score: 0.0007499
CEBPZ knockout
  neg|lfc: −1.2677
CENPL knockout
  neg|score: 0.000924
CHMP6 knockout
  neg|lfc: −1.2891
CLP1 knockout
  neg|score: 0.000693
CNOT7 knockout
  neg|lfc: −0.9274
COPS4 knockout
  neg|score: 0.0009634
COPS5 knockout
  neg|lfc: −1.8379
COPS8 knockout
  neg|lfc: −0.9744
COX10 knockout
  neg|score: 0.0009358
COX11 knockout
  neg|lfc: −0.6679
CSNK2B knockout
  neg|lfc: −1.5191
CTNNBL1 knockout
  neg|score: 0.0007324
DCTN1 knockout
  neg|score: 0.0008908
DCTN5 knockout
  neg|lfc: −1.6239
DCTN6 knockout
  neg|lfc: −1.5775
DDOST knockout
  neg|lfc: −0.981
DDX52 knockout
  neg|lfc: −1.1513
DDX54 knockout
  neg|score: 0.0009466
DGCR8 knockout
  neg|score: 0.0008832
DPH5 knockout
  neg|lfc: −1.0575
DPY30 knockout
  neg|lfc: −0.7867
DR1 knockout
  neg|score: 0.0008727
DUT knockout
  neg|lfc: −0.9153
DYNC1I2 knockout
  neg|lfc: −2.041
EIF2B1 knockout
  neg|score: 0.0008906
EIF2B5 knockout
  neg|lfc: −1.2117
EXOC5 knockout
  neg|score: 0.0008724
EXOSC8 knockout
  neg|lfc: −1.0794
FASTKD5 knockout
  neg|lfc: −0.9103
FBL knockout
  neg|score: 0.0009079
FBXL5 knockout
  neg|score: 0.0009454
FDX1L knockout
  neg|score: 0.0007487
FOXRED1 knockout
  neg|lfc: −0.9267
FSCN1 knockout
  neg|lfc: −0.9432
FTSJ3 knockout
  neg|lfc: −1.5605
FXN knockout
  neg|score: 0.000775
FZD9 knockout
  neg|lfc: −1.077
GARS knockout
  neg|score: 0.0008542
GEMIN4 knockout
  neg|lfc: −1.3849
GINS1 knockout
  neg|score: 0.0009186
GSG2 knockout
  neg|lfc: −1.139
GTF2F2 knockout
  neg|lfc: −0.9729
GTF3C1 knockout
  neg|lfc: −1.0865
GTPBP4 knockout
  neg|score: 0.0008361
HEATR2 knockout
  neg|lfc: −0.6955
HGS knockout
  neg|lfc: −0.9397
HNF1B knockout
  neg|lfc: −0.822
HSPA8 knockout
  neg|lfc: −2.0457
HSPA14 knockout
  neg|score: 0.0009105
IDI1 knockout
  neg|lfc: −0.7039
ILF3 knockout
  neg|score: 0.0008338
IMP4 knockout
  neg|lfc: −1.8118
IPO13 knockout
  neg|score: 0.0008689
IQGAP3 knockout
  neg|score: 0.0008176
JMJD6 knockout
  neg|score: 0.0007183
KANSL3 knockout
  neg|lfc: −1.734
KBTBD2 knockout
  neg|score: 0.0008277
KDM2A knockout
  neg|score: 0.0008953
KIF18A knockout
  neg|lfc: −1.181
KRAS knockout
  neg|score: 0.0008327
KRR1 knockout
  neg|lfc: −1.4982
LSM3 knockout
  neg|score: 0.0008487
LSM5 knockout
  neg|score: 0.0007041
LSM12 knockout
  neg|lfc: −0.7213
MBTPS1 knockout
  neg|score: 0.0007681
MCAT knockout
  neg|score: 0.0009141
MCM4 knockout
  neg|score: 0.000877
MED11 knockout
  neg|lfc: −1.4228
MOGAT3 knockout
  neg|score: 0.000754
MRPL11 knockout
  neg|score: 0.0007518
MRPL38 knockout
  neg|lfc: −1.0939
MRPL50 knockout
  neg|lfc: −1.0478
MRPS2 knockout
  neg|score: 0.0007231
MRRF knockout
  neg|score: 0.0008379
MTERFD2 knockout
  neg|score: 0.0008506
MTHFD1 knockout
  neg|score: 0.0007217
MYBBP1A knockout
  neg|score: 0.0009866
MYBL2 knockout
  neg|lfc: −0.6253
NAA10 knockout
  neg|score: 0.0008935
NASP knockout
  neg|score: 0.0009277
NCAPD2 knockout
  neg|score: 0.0009387
NDUFB9 knockout
  neg|score: 0.0007395
NDUFB10 knockout
  neg|score: 0.0009074
NDUFS1 knockout
  neg|score: 0.0007194
NDUFS5 knockout
  neg|lfc: −0.8577
NEDD8 knockout
  neg|lfc: −2.4196
NIP7 knockout
  neg|lfc: −0.8825
NLE1 knockout
  neg|lfc: −1.8629
NME6 knockout
  neg|lfc: −1.1709
NOL6 knockout
  neg|lfc: −1.0733
NOL8 knockout
  neg|score: 0.000711
NPLOC4 knockout
  neg|lfc: −1.2039
NRF1 knockout
  neg|score: 0.0008548
NSMCE2 knockout
  neg|lfc: −1.577
NUBP1 knockout
  neg|lfc: −1.2742
OGT knockout
  neg|lfc: −1.3076
OR3A2 knockout
  neg|score: 0.0009552
PDHA1 knockout
  neg|lfc: −0.7499
PGGT1B knockout
  neg|lfc: −0.821
PI4KA knockout
  neg|lfc: −1.1904
PNN knockout
  neg|score: 0.0007486
POLD2 knockout
  neg|score: 0.0007896
POLR3A knockout
  neg|score: 0.0008536
PPIL4 knockout
  neg|score: 0.000952
PRKRIR knockout
  neg|lfc: −1.3008
PRPF19 knockout
  neg|score: 0.0007312
PRPF38B knockout
  neg|score: 0.0009555
PSMA6 knockout
  neg|lfc: −1.9056
PSMB4 knockout
  neg|score: 0.000768
QARS knockout
  neg|lfc: −1.1752
RABGGTA knockout
  neg|score: 0.0007119
RABIF knockout
  neg|lfc: −1.3292
RANBP1 knockout
  neg|lfc: −0.7938
RBM10 knockout
  neg|lfc: −1.4299
RBM48 knockout
  neg|lfc: −1.4768
RBX1 knockout
  neg|score: 0.0008383
RFC2 knockout
  neg|score: 0.0008264
RNASEH1 knockout
  neg|score: 0.000903
RNF20 knockout
  neg|lfc: −0.9142
RNF168 knockout
  neg|score: 0.0008246
RNPS1 knockout
  neg|score: 0.0009345
RPF2 knockout
  neg|score: 0.0009481
RPL7 knockout
  neg|lfc: −1.3947
RPL18A knockout
  neg|lfc: −1.5316
RPL35 knockout
  neg|lfc: −0.8092
RPP30 knockout
  neg|lfc: −1.2535
RPS2 knockout
  neg|score: 0.0008275
RPS8 knockout
  neg|lfc: −2.8705
RRM1 knockout
  neg|lfc: −1.5038
SASS6 knockout
  neg|score: 0.0008932
SKA2 knockout
  neg|lfc: −1.5851
SLC39A14 knockout
  neg|lfc: −0.9135
SMARCB1 knockout
  neg|score: 0.0008764
SOD1 knockout
  neg|score: 0.0007147
SRPRB knockout
  neg|lfc: −0.9129
SUPT4H1 knockout
  neg|score: 0.0007007
SUZ12 knockout
  neg|lfc: −0.9357
TARDBP knockout
  neg|lfc: −1.4541
TBCA knockout
  neg|lfc: −1.4702
TBP knockout
  neg|lfc: −1.6473
TFB1M knockout
  neg|lfc: −0.9751
TFDP1 knockout
  neg|score: 0.0007958
TIMM13 knockout
  neg|score: 0.0007917
TMEM130 knockout
  neg|score: 0.0009518
TNPO3 knockout
  neg|score: 0.0009376
TRIT1 knockout
  neg|score: 0.0007446
TSR1 knockout
  neg|lfc: −1.335
TTC27 knockout
  neg|score: 0.0008097
TTI1 knockout
  neg|score: 0.0008319
TUBE1 knockout
  neg|score: 0.0008874
TUT1 knockout
  neg|score: 0.0008619
TXNL4A knockout
  neg|lfc: −1.8929
TYMS knockout
  neg|score: 0.0007567
UBC knockout
  neg|lfc: −1.0724
UBE2I knockout
  neg|score: 0.0008281
UBR4 knockout
  neg|lfc: −1.0947
UBR5 knockout
  neg|lfc: −1.3884
UBTF knockout
  neg|score: 0.0007853
UQCRC2 knockout
  neg|lfc: −1.0409
UTP6 knockout
  neg|lfc: −2.6455
UTP20 knockout
  neg|score: 0.0007152
VMA21 knockout
  neg|score: 0.000773
VPS18 knockout
  neg|lfc: −1.3116
VPS53 knockout
  neg|lfc: −0.6999
VPS72 knockout
  neg|lfc: −0.5497
WDHD1 knockout
  neg|score: 0.0009781
WDR3 knockout
  neg|score: 0.0009589
WDR18 knockout
  neg|score: 0.0007708
WNK1 knockout
  neg|lfc: −1.0645
WRAP53 knockout
  neg|score: 0.0007984
XPR1 knockout
  neg|score: 0.000881
XRCC5 knockout
  neg|lfc: −1.6679
ZBTB11 knockout
  neg|score: 0.0007214
ZCCHC9 knockout
  neg|lfc: −1.957
ZNF131 knockout
  neg|score: 0.0008989
ZNRD1 knockout
  neg|lfc: −1.5763
Gene ACTB
  pos|lfc: −1.1591
Gene ALG3
  pos|lfc: −0.5782
Gene ANAPC15
  pos|lfc: −1.2923
Gene AP2S1
  pos|lfc: −1.3206
Gene ARID4B
  pos|lfc: −0.9143
Gene BRCA1
  pos|lfc: −0.6966
Gene BUB1B
  pos|lfc: −0.8094
Gene C1D
  pos|lfc: −1.3624
Gene C16orf72
  pos|lfc: −2.2251
Gene CABIN1
  pos|lfc: −0.7818
Gene COPS6
  pos|lfc: −1.1267
Gene CS
  pos|lfc: −1.0352
Gene DARS2
  pos|lfc: −1.095
Gene DCLRE1B
  pos|lfc: −0.6801
Gene DDX49
  pos|lfc: −2.1703
Gene DYNC1H1
  pos|lfc: −1.3605
Gene DYNLRB1
  pos|lfc: −1.1311
Gene EIF2S1
  pos|lfc: −1.3093
Gene EIF2S2
  pos|lfc: −1.5347
Gene EIF5AL1
  pos|lfc: −0.8423
Gene EIF5B
  pos|lfc: −1.1819
Gene FANCA
  pos|lfc: −0.6873
Gene FANCG
  pos|lfc: −0.7949
Gene FNTB
  pos|lfc: −0.9877
Gene GCN1L1
  pos|lfc: −0.5542
Gene GRWD1
  pos|lfc: −0.9019
Gene GTPBP8
  pos|lfc: −1.0746
Gene HNRNPL
  pos|lfc: −1.1529
Gene HNRNPR
  pos|lfc: −0.5338
Gene KIAA1429
  pos|lfc: −1.1326
Gene LIMS1
  pos|lfc: −0.8407
Gene MMGT1
  pos|lfc: −0.748
Gene MRPL54
  pos|lfc: −0.8393
Gene NDUFB2
  pos|lfc: −0.8331
Gene NDUFC1
  pos|lfc: −0.9001
Gene NOP16
  pos|lfc: −1.0035
Gene PDCD7
  pos|lfc: −0.9939
Gene PDE12
  pos|lfc: −0.8248
Gene PEAR1
  pos|lfc: −0.6471
Gene POLD3
  pos|lfc: −1.3598
Gene POLR1C
  pos|lfc: −0.9691
Gene POLR2F
  pos|lfc: −1.9506
Gene PPHLN1
  pos|lfc: −0.829
Gene PPOX
  pos|lfc: −0.7508
Gene PWP2
  pos|lfc: −1.0599
Gene RIMBP2
  pos|lfc: −0.4894
Gene RMND1
  pos|lfc: −0.9991
Gene RPL3
  pos|lfc: −1.3237
Gene RPS19
  pos|lfc: −2.0213
Gene SEZ6
  pos|lfc: −0.6228
Gene SLC2A1
  pos|lfc: −0.9368
Gene SMC3
  pos|lfc: −1.7209
Gene SMC6
  pos|lfc: −1.1456
Gene SMG5
  pos|lfc: −1.2307
Gene SNRNP40
  pos|lfc: −1.1024
Gene TEX10
  pos|lfc: −1.3169
Gene TIFAB
  pos|lfc: −0.6891
Gene TOMM22
  pos|lfc: −0.8272
Gene TRAPPC4
  pos|lfc: −1.0187
Gene TTI2
  pos|lfc: −0.8554
Gene USP10
  pos|lfc: −0.902
Gene WDR12
  pos|lfc: −1.1622
Gene WDR92
  pos|lfc: −1.2556
Gene ZNHIT6
  pos|lfc: −1.4893
